Results published in patent publication US6113907A, “Pharmaceutical grade St. John's Wort” (priority 1997, dated 2000).
Where two headings read alike, the source gives them in different places.

What was measured:
[1] = test system: muscarinic receptor for the central nervous system; assay: muscarinic receptor for the central nervous system (M1 Central), [3H] QNB, rat cortical membranes; format: binding; settings: 10^-4; 100 µM
Method: Fourteen additional bioassays were preformed on either extracts, fractions or reference compounds for this botanical. To measure inhibition of [^3 H] PK11195 to the benzodiazepine receptor (BDZ) a partially purified receptor preparation was made from rat kidney membranes. The final radioactive ligand concentration was 1 nM and non-specific binding was measured using 200 nM cold PK11195. The substances, receptor and ligand were reacted in 50 mM Tris-HCL (pH 7.7) at 0-4° C. for 60 minutes. The reaction was terminated by rapid filtration of the samples through glass fiber filters. […] The inhibition of [^3 H] pinrenzepine to the muscarinic M1 receptor (M1) by the substances was measured using a partially purified receptor from bovine striatal membranes. The final hot ligand concentration was 1 nM and non-specific binding was determined in the presence of 100 nM atropine. […] The reactions were terminated by rapid vacuum filtration of the reaction mixture through glass fiber filters. […] To assay for biological activity for the muscarinic receptor for the central nervous system, receptor was partially purified from rat cortical membranes. […] Non-specific binding was determined in the presence of 100 nM atropine. […] Non-specific binding was determined using 1 mM NMDA. […] Non-specific binding was determined using 100 μM AMPA.

MAOA = target: T1, MAOA (Rattus norvegicus, UniProt P21396); assay: NIMH/NovaScreen screen, MAOA; format: biochemical
T1 sequence (P21396 1-526): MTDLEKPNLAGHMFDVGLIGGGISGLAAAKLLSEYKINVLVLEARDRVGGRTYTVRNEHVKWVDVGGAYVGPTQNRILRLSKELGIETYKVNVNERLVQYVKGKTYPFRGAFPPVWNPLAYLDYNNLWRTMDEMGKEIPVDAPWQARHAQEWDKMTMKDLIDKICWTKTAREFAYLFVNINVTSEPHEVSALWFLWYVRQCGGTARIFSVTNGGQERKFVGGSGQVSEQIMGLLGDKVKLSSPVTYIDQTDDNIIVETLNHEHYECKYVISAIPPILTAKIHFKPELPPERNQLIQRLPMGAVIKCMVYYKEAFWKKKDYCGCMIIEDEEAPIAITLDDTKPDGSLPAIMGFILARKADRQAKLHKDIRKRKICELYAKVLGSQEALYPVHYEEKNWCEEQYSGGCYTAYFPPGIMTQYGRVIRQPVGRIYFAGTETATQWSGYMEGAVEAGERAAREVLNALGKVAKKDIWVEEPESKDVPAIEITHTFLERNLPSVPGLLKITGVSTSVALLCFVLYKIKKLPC

stability = format: physicochemical; settings: our data
Excerpt: Some botanicals, such as St. John's Wort, are both temperature and light sensitive. For this type of botanical the material should be dry packed with a refrigerant or shipped under refrigeration and protected from light and air. […] Stability (in absence of air) was increased to six months in a preparation extracted with ethanol.
Phloroglucinola include hyperforin (prenylated derivative of phloroglucinol), adhyperforin (similar to the bitter principle of hops, adhumulone).

NMDA = assay: Receptor Binding by Hypericin, NMDA
Method: Through an NIMH screening contract (NovaScreen™, Baltimore, Md.) a commercially available crude extract from the fresh flowers and buds of Hypericum perforatum [1:1.5; hydro-alcohol (40:60) made from flowering tops; Herb Pharm] containing ~0.1% hypericin was dried under vacuum, dissolved in 4% DMSO, and diluted to an initial concentration of 50 mg/ml for in vitro screening in a battery of 39 receptor assays and two enzyme systems (Table 5, below).

herpes simplex = settings: cited from earlier work
Sindbis virus = settings: cited from earlier work
glioma cells = settings: tissue culture; cited from earlier work
[2] = test system: equine infectious anemia virus; settings: cited from earlier work
Nitric oxide synthetase = assay: nitric oxide synthetase binding (NOS), [3H] NOARG, rat brain membranes; settings: 10^-4; 60 min, 100 µM
Method: The inhibition of MAOA enzymatic activity (MAOA) was determined using rat liver mitochondrial membranes as a partially purified enzyme source. […] The reaction involves the conversion of the substrate to [^14 C] 5-hydroxyl indoleacetaldehyde+NH4^+. In brief, the enzyme is preincubated with the substances and the subtype specific blocker deprenyl (at 300 nM) for 60 minutes at 37° C. in 100 mM KPO4 (pH 7.2). Substrate is added and incubated for an additional 10 minutes. The reaction is terminated by the addition of 0.5 ml of 2M citric acid. […] Nitric oxide synthetase activity was measured using a binding assay (NOS). The receptors were made by partial purification of material from rat brain membranes. The radioligand used was [^3 H] L-N^G -Nitro-Arginine (NOARG) at a final concentration of 5 nM. Non-specific binding was determined using 100 μM of NOARG. The assay reactions were carried out in 50 mM Tris-HCl (pH 7.4) for 60 minutes at 25° C.

murine cytomegalovirus = settings: cited from earlier work

With `Cc1cc(O)c2c(=O)c3c(O)cc(O)c4c5c(O)cc(O)c6c(=O)c7c(O)cc(C)c8c1c2c(c34)c(c78)c65` [Hypericin, hypericin] the “M1 Central” value [1] was 55%, the inhibition at 10 µM (MAOA; 10 μM) was 27% and the inhibition at 100 µM (MAOA; 100 μM) was 20.8%. The “MAOA inhibition” value (MAOA; up to 0.1 mM) was “lacked significant MAOA or MAO-^B inhibition”, the stability in solution (stability) was “unstable in solution” and the “% Inhibition NMDA” value (NMDA; 1 μM) was 48.5%. For the same compound, the “% Inhibition NMDA” value (NMDA; 10 μM) was 81.7%, the “% Inhibition NMDA” value (NMDA; 100 μM) was -20.7% and the “% Inhibition NMDA” value (NMDA; .001 μM) was 10.5%. For the same compound, the “% Inhibition NMDA” value (NMDA; .01 μM) was 24.5%, the “% Inhibition NMDA” value (NMDA; .1 μM) was -0.3% and the Ki (NMDA; read-out: Ki NMDA) was ~1000 nM. The Ki (NMDA; read-out: ~Ki NMDA (Table 7)) was ~1100 nM, the “inhibition of herpes simplex” value (herpes simplex) was “inhibit” and the “activity against Sindbis virus” value (Sindbis virus) was “Activity has also been reported”. For the same compound, the “growth of glioma cells” value (glioma cells) was “inhibit the growth of glioma cells”, the “activity against equine infectious anemia virus” value [2] was “Activity has also been reported” and the NOS (Nitric oxide synthetase) was 48%. The “activity against murine cytomegalovirus” value (murine cytomegalovirus) was “Activity has also been reported”.
